Values quoted from earlier work as cited in patent publication US8552051B2 (H. L. Hall & Sons Limited, priority 2009, dated 2013).

Columns and labels:
PDE4 = conditions: Napoletano, M. et al. 2001
5-HT uptake = 5-HT uptake (Homo sapiens, UniProt P31645); conditions: U.S. Pat. No. 6,288,104
5-HT uptake, sequence (P31645 whole entry): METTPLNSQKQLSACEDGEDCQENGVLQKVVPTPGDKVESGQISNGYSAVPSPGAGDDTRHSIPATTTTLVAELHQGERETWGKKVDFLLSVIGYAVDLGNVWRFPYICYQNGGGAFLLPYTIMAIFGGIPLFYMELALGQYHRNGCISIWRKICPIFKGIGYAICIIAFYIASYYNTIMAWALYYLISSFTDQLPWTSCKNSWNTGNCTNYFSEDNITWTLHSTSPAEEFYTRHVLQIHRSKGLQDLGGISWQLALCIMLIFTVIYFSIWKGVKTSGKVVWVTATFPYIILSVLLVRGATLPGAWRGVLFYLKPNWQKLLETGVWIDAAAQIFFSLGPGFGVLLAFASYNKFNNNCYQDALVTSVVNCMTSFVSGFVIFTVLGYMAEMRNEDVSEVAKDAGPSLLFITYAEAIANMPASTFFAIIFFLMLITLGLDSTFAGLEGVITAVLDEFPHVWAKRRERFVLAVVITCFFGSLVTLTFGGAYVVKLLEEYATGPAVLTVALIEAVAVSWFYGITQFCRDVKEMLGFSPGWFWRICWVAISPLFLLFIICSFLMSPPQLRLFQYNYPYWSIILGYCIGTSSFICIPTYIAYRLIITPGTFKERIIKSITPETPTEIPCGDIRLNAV

SMILES	PDE4 inhibition, result in words (PDE4)	5-HT uptake inhibitory activity, result in words (5-HT uptake)
COc1ccc(C23CCC(=O)CC2N(C)CC3)cc1OC.Cl (centres unmarked) [Mesembrine hydrochloride]	weak PDE4 inhibitor	–
COc1ccc(C23C=CC(O)CC2N(C)CC3)cc1OC (centres unmarked) [mesembrenol]	–	potent 5-HT uptake inhibitory activity
